Reference: patent US10660898B2, “Benzimidazole derivatives as PI3 kinase inhibitors” (GLAXOSMITHKLINE LLC, priority 2010, dated 2020)

What was measured:
pAKT (pAKT/tAKT) = experiment: Pharmacodynamic effects in PC-3 xenograft tumors (MSD phospho/total AKT); type: in vivo, mouse; settings: 3 mg/kg or 10 mg/kg, 1, 2, 4, 6, 8, 10, and 24 hours
Procedure: Female nude mice (Charles River Laboratories, Wilmington, Del.; strain CD-1-Foxn1, 6 weeks of age) were injected subcutaneously with 2 million PC-3 (human prostate carcinoma) cells mixed 1:1 with Matrigel in the flank. Tumors were allowed to grow for approximately 5 weeks. […] The tumor was excised. Half of each tumor was immediately processed by Medicon (BD Catalog #340592) in 1 mL Meso-Scale Discovery (MSD) lysis buffer with protease inhibitors (Roche complete protease cocktail, cat #04 693 116 001) and phosphatase inhibitors (Sigma, cat # P2850 and P-5726) for 30-60 seconds and transferred to 1.5 mL Eppendorf tubes. Tubes remained on wet ice until they were centrifuged for 10 minutes at 4° C. at maximum speed in a tabletop refrigerated centrifuge. Tumor lysates were serially diluted in 96-well polypropylene plates on wet ice. Lysates (150 μL) were loaded in row 1; rows 2-12 were loaded with 75 μL of complete Meso Scale Discovery (MSD) lysis buffer (supplied in MSD kit; # […]-3). […] Plates were washed as described above, before the addition of 150 µL of MSD read buffer and read immediately on a 6000 MSD plate reader. […] P/T AKT was calculated as shown: (phospho AKT(Ser473) signal)/[(phospho AKT(Ser473) signal)+(total AKT signal)]. […] Percent inhibition was calculated for each group as follows: 100-[(sample P/T AKT value)/(vehicle P/T AKT value)]*100.

HCT-116 = experiment: Anchorage independent soft agar tumor growth assay; type: cell-based; settings: HCT-116 colon carcinoma, PTEN Wild-type
Procedure: (§1) Cellular Assays—Cell Growth Inhibition Assay in PTEN Wild-Type or PTEN Deficient Tumor Cell Lines Twenty-two Phosphatase and Tensin Homolog (PTEN) wild-type or PTEN deficient tumor cell lines were cultured generally according to instructions supplied by cell culture supplier American Type Culture Collection, Manassas, Va., with 10% fetal bovine serum at 5% CO2 and 37° C. Cells were seeded into either a T-75 or a T-175 flask 3-4 days prior to 96-well assay plating such that the flasks were approximately 70-80% confluent of the time of harvest. Cells were harvested using 0.25% trypsin-EDTA (Invitrogen #25200056). Trypan Blue exclusion staining was used to determine cell number. Viable cells were plated in clear, flat bottom 96-well plates (BD #353075) under anchorage independent conditions at 2,000-10,000 cells per well depending on the cell line. To generate anchorage independent growth conditions, a 5% agar stock solution in water was made and autoclaved to melt and sterilize. From the 5% agar solution, a 0.6% agar/media+10% fetal bovine serum (FBS) solution was made to generate a bottom agar layer in the plates to prevent cell attachment. Seventy five microliters per well of the 0.6% agar-media solution was added to the plates. After solidification, a cell solution of 266,870 to 1, 334,022 cells (depending on the cell line) in 10 ml of 0.3% agar/media+10% FBS was made and 75 μl of the cell/media/agar suspension was added to the plates. After the cell layer solidified, 50 μl of media+10% FBS was added to the top of the cells. A 0.3% Brij 35 (Sigma B4184) solution in media+10% FBS was added to column 12 as a background subtraction control. The cells were incubated overnight at 5% CO2 and 37° C. The next day one plate of cells was processed at the time of compound addition to quantify the starting number of cells (T=0 or T0). […] Three hundred microliters of media was added to the compound dilutions. Ten microliters per well of the serial dilutions was added to the cells and the plates incubated for 6 days at 5% CO2 and 37° C. […] Following the 6-day incubation, 20 μl of Alamar Blue (Invitrogen # DAL1100) was added to the cells, incubated at 5% CO2 and 37° C. for 6 hours and the plates read on a Spectramax (Gemini EM) at 530 nm (excitation) and 590 nm (emission) with the auto cut-off disabled. For analysis of cell growth inhibition dose response curves, the data was plotted as the percent of the DMSO-treated control samples (DMSO samples set to 100%). […] Values from wells containing 0.3% Brij 35 (under anchorage independent conditions) were subtracted from all samples for background correction.

WM-115 = experiment: Anchorage independent soft agar tumor growth assay; type: cell-based; settings: WM-115 skin melanoma, PTEN p.165fs*, No protein
Procedure: as §1

C32 = experiment: Anchorage independent soft agar tumor growth assay; type: cell-based; settings: C32 skin melanoma, PTEN p.55fs*, No protein
Procedure: as §1

BT474 = experiment: Anchorage independent soft agar tumor growth assay; type: cell-based; settings: BT474 breast carcinoma, PTEN Wild-type, Protein
Procedure: as §1

UM-UC-3 = experiment: Anchorage independent soft agar tumor growth assay; type: cell-based; settings: UM-UC-3 bladder transitional, PTEN Loss, No protein
Procedure: as §1

Colo205 = experiment: Anchorage independent soft agar tumor growth assay; type: cell-based; settings: Colo205 colon carcinoma, PTEN Wild-type
Procedure: as §1

PC-3 = experiment: Anchorage independent soft agar tumor growth assay; type: cell-based, human; settings: PC-3 prostate carcinoma, PTEN Loss, No protein
Procedure: Cellular Assays—Cell Growth Inhibition Assay in PTEN Wild-Type or PTEN Deficient Tumor Cell Lines Twenty-two Phosphatase and Tensin Homolog (PTEN) wild-type or PTEN deficient tumor cell lines were cultured generally according to instructions supplied by cell culture supplier American Type Culture Collection, Manassas, Va., with 10% fetal bovine serum at 5% CO2 and 37° C. Cells were seeded into either a T-75 or a T-175 flask 3-4 days prior to 96-well assay plating such that the flasks were approximately 70-80% confluent of the time of harvest. Cells were harvested using 0.25% trypsin-EDTA (Invitrogen #25200056). Trypan Blue exclusion staining was used to determine cell number. Viable cells were plated in clear, flat bottom 96-well plates (BD #353075) under anchorage independent conditions at 2,000-10,000 cells per well depending on the cell line. To generate anchorage independent growth conditions, a 5% agar stock solution in water was made and autoclaved to melt and sterilize. […] The next day one plate of cells was processed at the time of compound addition to quantify the starting number of cells (T=0 or T0). […] Following the 6-day incubation, 20 μl of Alamar Blue (Invitrogen # DAL1100) was added to the cells, incubated at 5% CO2 and 37° C. for 6 hours and the plates read on a Spectramax (Gemini EM) at 530 nm (excitation) and 590 nm (emission) with the auto cut-off disabled. […]

[1] = percent of DMSO-treated control
[2] = Homo sapiens, 144 h, 6-day incubation, Alamar Blue, read-out: Compound EC50 (nM) ± StDev

Structure (SMILES): Cc1c(Cn2c(C)nc3c(C(=O)O)cc(N4CCOCC4)cc32)cccc1C(F)(F)F [Example 31, 2-methyl-1-{[2-methyl-3-(trifluoromethyl)phenol]methyl}-6-(4-morpholinyl)-1H-benzimidazole-4-carboxylic acid]
- Inhibition of the pharmacodynamic marker pAKT (pAKT/tAKT) (pAKT (pAKT/tAKT)): dose dependent inhibition
- Compound Ymin ± StDev (HCT-116; [1]): >80
- EC50 (HCT-116; [2]): > 30700 nM
- EC50 (WM-115; [2]): 8 ± 3 nM
- Compound Ymin ± StDev (WM-115; [1]): 54 ± 14
- Compound Ymin ± StDev (C32; [1]): 20 ± 14
- EC50 (C32; [2]): 8 ± 2 nM
- Compound Ymin ± StDev (BT474; [1]): 75 ± 3
- EC50 (BT474; Homo sapiens, BT-474, 144 h, 6-day incubation, Alamar Blue, read-out: Compound EC50 (nM) ± StDev): 3360 ± 868 nM
- EC50 (UM-UC-3; Homo sapiens, UMUC3, 144 h, 6-day incubation, Alamar Blue, read-out: Compound EC50 (nM) ± StDev): 10 ± 8 nM
- Compound Ymin ± StDev (UM-UC-3; [1]): 83 ± 29
- Compound Ymin ± StDev (Colo205; [1]): >80
- EC50 (Colo205; Homo sapiens, COLO 205, 144 h, 6-day incubation, Alamar Blue, read-out: Compound EC50 (nM) ± StDev): > 30700 nM
- EC50 (PC-3; [2]): 27 ± 12 nM
- Compound Ymin ± StDev (PC-3; [1]): 82 ± 13
